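These data come from cells grown in 96-well plates and exposed to compound for 48 hours at five concentrations. The concentration for 50% growth inhibition is given as GI50. TGI marks complete inhibition of growth.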
Legend:
Assay in all cases: NCI tumour cell line growth inhibition, 48 h
OVCAR-3 ovarian = test system: OVCAR-3 ovarian
CCRF-CEM leukemia = test system: CCRF-CEM leukemia
HOP-18 NSCLC = test system: HOP-18 NSCLC
ACHN renal = test system: ACHN renal
HCT-116 colon = test system: HCT-116 colon
EKVX NSCLC = test system: EKVX NSCLC
KM20L2 colon = test system: KM20L2 colon
UO-31 renal = test system: UO-31 renal
SK-OV-3 ovarian = test system: SK-OV-3 ovarian
MALME-3M melanoma = test system: MALME-3M melanoma
MDA-N = test system: MDA-N
T-47D breast = test system: T-47D breast
UACC-62 melanoma = test system: UACC-62 melanoma
MDA-MB-231 breast = test system: MDA-MB-231 breast
HT29 colon = test system: HT29 colon
HOP-92 NSCLC = test system: HOP-92 NSCLC
LOX IMVI melanoma = test system: LOX IMVI melanoma
COLO 205 colon = test system: COLO 205 colon
LXFL 529 NSCLC = test system: LXFL 529 NSCLC
PC-3 prostate = test system: PC-3 prostate
RXF 393 renal = test system: RXF 393 renal
HL-60(TB) leukemia = test system: HL-60(TB) leukemia
SNB-19 CNS = test system: SNB-19 CNS
A549 NSCLC = test system: A549 NSCLC
SK-MEL-5 melanoma = test system: SK-MEL-5 melanoma
SK-MEL-28 melanoma = test system: SK-MEL-28 melanoma
MCF7 breast = test system: MCF7 breast
DMS 273 small cell lung = test system: DMS 273 small cell lung
NCI-H226 lung = test system: NCI-H226 lung
NCI-H460 lung = test system: NCI-H460 lung
RXF-631 renal = test system: RXF-631 renal
DU-145 prostate = test system: DU-145 prostate
SW-620 colon = test system: SW-620 colon
HCT-15 colon = test system: HCT-15 colon
K-562 leukemia = test system: K-562 leukemia
NCI-H23 lung = test system: NCI-H23 lung
DLD-1 colon = test system: DLD-1 colon
SN12C renal = test system: SN12C renal
RPMI-8226 leukemia = test system: RPMI-8226 leukemia
SF-539 CNS = test system: SF-539 CNS
BT-549 breast = test system: BT-549 breast
SNB-78 CNS = test system: SNB-78 CNS
XF 498 CNS = test system: XF 498 CNS
OVCAR-8 ovarian = test system: OVCAR-8 ovarian
MOLT-4 leukemia = test system: MOLT-4 leukemia
TK-10 renal = test system: TK-10 renal
SNB-75 CNS = test system: SNB-75 CNS
MDA-MB-435 = test system: MDA-MB-435
SK-MEL-2 melanoma = test system: SK-MEL-2 melanoma
786-0 renal = test system: 786-0 renal
UACC-257 melanoma = test system: UACC-257 melanoma
SF-268 CNS = test system: SF-268 CNS
IGROV1 ovarian = test system: IGROV1 ovarian
OVCAR-4 ovarian = test system: OVCAR-4 ovarian
HS 578T breast = test system: HS 578T breast
A498 renal = test system: A498 renal
CAKI-1 renal = test system: CAKI-1 renal
U251 CNS = test system: U251 CNS
M19-MEL melanoma = test system: M19-MEL melanoma
KM12 colon = test system: KM12 colon
M14 melanoma = test system: M14 melanoma
HOP-62 NSCLC = test system: HOP-62 NSCLC
DMS 114 small cell lung = test system: DMS 114 small cell lung
OVCAR-5 ovarian = test system: OVCAR-5 ovarian
HCC-2998 colon = test system: HCC-2998 colon
SF-295 CNS = test system: SF-295 CNS

SMILES: C[N+](C)(C)CC1CCC(C[N+](C)(C)C)C1=O (stereo not given)
- TGI (OVCAR-3 ovarian): 5.32 µM
- GI50 (CCRF-CEM leukemia): 0.258 µM
- TGI (CCRF-CEM leukemia): 1.47 µM
- TGI (HOP-18 NSCLC): 1.85 µM
- TGI (ACHN renal): 3.49 µM
- TGI (HCT-116 colon): 3.44 µM
- GI50 (EKVX NSCLC): 4.43 µM
- TGI (EKVX NSCLC): 17.5 µM
- TGI (KM20L2 colon): 9.78 µM
- TGI (UO-31 renal): 8.51 µM
- TGI (SK-OV-3 ovarian): 42 µM
- TGI (MALME-3M melanoma): 2.28 µM
- TGI (MDA-N): 19.3 µM
- TGI (T-47D breast): 8.28 µM
- TGI (UACC-62 melanoma): 17.9 µM
- TGI (MDA-MB-231 breast): 41.3 µM
- TGI (HT29 colon): 3.4 µM
- TGI (HOP-92 NSCLC): 2.28 µM
- TGI (LOX IMVI melanoma): 10.3 µM
- GI50 (COLO 205 colon): 0.457 µM
- TGI (COLO 205 colon): 1.58 µM
- TGI (LXFL 529 NSCLC): 1.57 µM
- TGI (PC-3 prostate): 31.3 µM
- TGI (RXF 393 renal): 3.71 µM
- GI50 (HL-60(TB) leukemia): 0.309 µM
- TGI (HL-60(TB) leukemia): 0.995 µM
- TGI (SNB-19 CNS): 33.5 µM
- TGI (A549 NSCLC): 45.8 µM
- TGI (SK-MEL-5 melanoma): 23.8 µM
- GI50 (SK-MEL-28 melanoma): 5.99 µM
- TGI (SK-MEL-28 melanoma): 11.1 µM
- TGI (MCF7 breast): 6.05 µM
- TGI (DMS 273 small cell lung): 6.37 µM
- TGI (NCI-H226 lung): 23.3 µM
- TGI (NCI-H460 lung): 62.8 µM
- TGI (RXF-631 renal): 36.4 µM
- TGI (DU-145 prostate): 30.5 µM
- GI50 (SW-620 colon): 1.18 µM
- TGI (SW-620 colon): 2.86 µM
- TGI (HCT-15 colon): 4.18 µM
- TGI (K-562 leukemia): 1.34 µM
- TGI (NCI-H23 lung): 8.27 µM
- TGI (DLD-1 colon): > 100 µM
- TGI (SN12C renal): 8.18 µM
- TGI (RPMI-8226 leukemia): 27.2 µM
- TGI (SF-539 CNS): 15.5 µM
- TGI (BT-549 breast): 30.7 µM
- TGI (SNB-78 CNS): 5.26 µM
- TGI (XF 498 CNS): 3.74 µM
- GI50 (OVCAR-8 ovarian): 14.3 µM
- TGI (OVCAR-8 ovarian): 38 µM
- GI50 (MOLT-4 leukemia): 0.25 µM
- TGI (MOLT-4 leukemia): 0.801 µM
- TGI (TK-10 renal): 6.39 µM
- TGI (SNB-75 CNS): 3.51 µM
- TGI (MDA-MB-435): 30.7 µM
- TGI (SK-MEL-2 melanoma): 36.9 µM
- TGI (786-0 renal): 4.06 µM
- TGI (UACC-257 melanoma): 9.05 µM
- GI50 (SF-268 CNS): 7.26 µM
- TGI (SF-268 CNS): 21.2 µM
- TGI (IGROV1 ovarian): 13.6 µM
- TGI (OVCAR-4 ovarian): 10.8 µM
- TGI (HS 578T breast): 91.5 µM
- TGI (A498 renal): 21.9 µM
- TGI (CAKI-1 renal): 1.55 µM
- TGI (U251 CNS): 17.1 µM
- TGI (M19-MEL melanoma): 3.83 µM
- TGI (KM12 colon): 16.3 µM
- TGI (M14 melanoma): 3.35 µM
- TGI (HOP-62 NSCLC): 36.1 µM
- TGI (DMS 114 small cell lung): 6.74 µM
- TGI (OVCAR-5 ovarian): 14.4 µM
- TGI (HCC-2998 colon): 22.5 µM
- TGI (SF-295 CNS): 35.9 µM
